Experimental data published in US20240246967A1, “AXL COMPOUNDS” (ARCUS BIOSCIENCES, INC., priority 2021, published 2024).

Assays:
human MER = target: T1, human MER (Homo sapiens, UniProt Q12866); assay: HTRF KinEASE-TK biochemical potency assay, MER; details: 1 nM MER, 700 μM ATP, 800 nM TK Substrate-biotin
T1 construct: purchased Invitrogen
T1 sequence (Q12866 21-999): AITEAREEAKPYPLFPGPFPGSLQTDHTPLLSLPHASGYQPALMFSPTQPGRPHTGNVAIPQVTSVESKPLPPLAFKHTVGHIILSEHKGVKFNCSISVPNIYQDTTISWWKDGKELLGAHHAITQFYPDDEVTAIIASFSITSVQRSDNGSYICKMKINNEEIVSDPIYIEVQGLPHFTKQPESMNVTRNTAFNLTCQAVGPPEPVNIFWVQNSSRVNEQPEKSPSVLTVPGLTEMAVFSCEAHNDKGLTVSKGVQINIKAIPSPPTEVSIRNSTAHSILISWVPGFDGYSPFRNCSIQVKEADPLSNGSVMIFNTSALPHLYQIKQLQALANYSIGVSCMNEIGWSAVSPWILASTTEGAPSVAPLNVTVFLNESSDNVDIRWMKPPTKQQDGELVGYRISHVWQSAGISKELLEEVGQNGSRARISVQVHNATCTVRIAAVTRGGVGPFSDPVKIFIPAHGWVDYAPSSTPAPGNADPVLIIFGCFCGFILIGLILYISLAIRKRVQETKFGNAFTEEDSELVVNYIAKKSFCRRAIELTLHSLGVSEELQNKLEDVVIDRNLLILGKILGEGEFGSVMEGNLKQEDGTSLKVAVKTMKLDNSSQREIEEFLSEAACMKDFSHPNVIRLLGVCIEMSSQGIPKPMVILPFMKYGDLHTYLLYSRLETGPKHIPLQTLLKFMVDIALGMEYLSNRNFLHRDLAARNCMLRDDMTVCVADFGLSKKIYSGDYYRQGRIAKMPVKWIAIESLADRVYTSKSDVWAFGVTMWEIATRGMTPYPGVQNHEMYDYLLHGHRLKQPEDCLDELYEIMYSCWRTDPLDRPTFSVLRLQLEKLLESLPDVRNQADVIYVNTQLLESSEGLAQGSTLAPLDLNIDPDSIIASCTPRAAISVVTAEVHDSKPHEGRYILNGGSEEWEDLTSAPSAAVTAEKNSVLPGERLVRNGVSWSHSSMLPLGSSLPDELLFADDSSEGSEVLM
Experimental: (§1) Purified recombinant human AXL, TYRO3 and MER proteins were purchased from Invitrogen™. 10 nM AXL, 2 nM TYRO3 or MER were incubated with varying concentrations of compounds in 50 mM HEPES, pH 7.4, 10 mM MgCl2, 0.01% BSA, 1 mM DTT and 2% DMSO in a total volume of 20 μl in a 384-well microplate (Corning™ #3640) at RT for 1 h. The AXL, TYRO3 and MER enzymatic reaction was initiated by transferring 10 μl of enzyme and compound mixture into 10 μl of 1.6 μM TK Substrate-biotin (HTRF® KinEASE-TK kit, Cisbio) and 1400 μM ATP pre-incubated in 50 mM HEPES, pH 7.4, 10 mM MgCl2, 0.01% BSA, 1 mM DTT in a 384-well microplate (Corning™ #3640) at RT, giving the final reaction conditions: 5 nM AXL, 1 nM TYRO3 or MER, 800 nM TK Substrate-biotin and 700 μM ATP in 50 mM HEPES, pH 7.4, 10 mM MgCl2, 0.01% BSA, 1 mM DTT and 1% DMSO with varying concentrations of compounds. Following 2 h incubation at RT, the AXL, TYRO3 and MER enzymatic reaction was stopped by transfer of 10 μl of reaction into 10 μl of detection mix (400 nM Streptavidin-XL665, 200-fold dilution TK Antibody-Cryptate and detection buffer, HTRF® KinEASE-TK kit, Cisbio) in a white 384-well microplate (Perkin Elmer, OptiPlate 384). After 1 h incubation at RT, the plate was put into a plate reader (Evision) to read at 665/620 nm (acceptor/donor) for HTRF. The value of the DMSO blank (MIN inhibition=100% activity) was used as a negative control. The positive control was established by adding 5 μl of enzyme and DMSO mixture into 10 μl of detection mix followed by addition of 5 μl of TK Substrate-biotin and ATP mixture (MAX inhibition=0% activity). To calculate the percent activity, Equation 1 was used. Ratio 665/620 is the value at a given compound concentration: […]

human TYRO3 = target: T2, human TYRO3 (Homo sapiens, UniProt Q06418); assay: HTRF KinEASE-TK biochemical potency assay, TYRO3; details: 1 nM TYRO3, 700 μM ATP, 800 nM TK Substrate-biotin
T2 construct: purchased Invitrogen
T2 sequence (Q06418 41-890): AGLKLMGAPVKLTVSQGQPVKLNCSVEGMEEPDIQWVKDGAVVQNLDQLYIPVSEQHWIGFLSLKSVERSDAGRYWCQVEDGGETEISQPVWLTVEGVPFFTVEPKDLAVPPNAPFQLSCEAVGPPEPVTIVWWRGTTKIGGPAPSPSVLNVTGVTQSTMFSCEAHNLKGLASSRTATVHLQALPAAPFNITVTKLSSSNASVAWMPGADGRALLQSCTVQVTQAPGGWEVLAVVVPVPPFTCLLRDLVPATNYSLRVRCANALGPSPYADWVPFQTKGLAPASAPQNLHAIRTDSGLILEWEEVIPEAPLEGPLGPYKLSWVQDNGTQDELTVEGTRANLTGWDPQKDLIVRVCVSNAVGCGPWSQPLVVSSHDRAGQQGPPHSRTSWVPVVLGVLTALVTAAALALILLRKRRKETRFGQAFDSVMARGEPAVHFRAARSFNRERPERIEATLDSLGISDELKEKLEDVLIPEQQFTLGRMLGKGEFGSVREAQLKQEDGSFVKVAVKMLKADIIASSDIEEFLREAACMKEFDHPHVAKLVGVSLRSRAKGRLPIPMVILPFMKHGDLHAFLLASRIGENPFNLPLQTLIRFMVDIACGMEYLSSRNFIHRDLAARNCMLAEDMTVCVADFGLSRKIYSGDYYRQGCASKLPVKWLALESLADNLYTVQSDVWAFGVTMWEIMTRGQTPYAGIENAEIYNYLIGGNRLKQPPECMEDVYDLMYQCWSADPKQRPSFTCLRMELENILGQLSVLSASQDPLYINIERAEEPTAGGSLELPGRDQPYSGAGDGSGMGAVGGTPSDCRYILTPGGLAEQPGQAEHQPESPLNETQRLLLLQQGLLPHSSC
Experimental: as §1

## CC(C)S(=O)(=O)c1ccc(-c2n[nH]c3ncc(-c4ccc5c(c4)CC[C@@H](N4CCCC4)CC5)cc23)cc1 [Example 42, (S)-3-(4-(Isopropylsulfonyl)phenyl)-5-(7-(pyrrolidin-1-yl)-6,7,8,9-tetrahydro-5H-benzo[7]annulen-2-yl)-1H-pyrazolo[3,4-b]pyridine]
Human MER
  IC50: 100 to 1000 nM
Human TYRO3
  IC50: < 100 nM

## C[C@@H]1CCCN1C1(C)CCc2ccc(-c3cnc4[nH]nc(-c5ccc(S(=O)(=O)C6CCCC6)cc5)c4c3)cc2CC1 (stereo partly drawn) [Example 45, 3-(4-(Cyclopentylsulfonyl)phenyl)-5-(7-methyl-7-((R)-2-methylpyrrolidin-1-yl)-6,7,8,9-tetrahydro-5H-benzo[7]annulen-2-yl)-1H-pyrazolo[3,4-b]pyridine]
Human MER
  IC50: > 1000 nM
Human TYRO3
  IC50: 100 to 1000 nM

## C[C@@H]1CCCN1C1(C)CCc2ccc(-c3cnc4[nH]nc(-c5ccc(S(=O)(=O)C6CCC6)cc5)c4c3)cc2CC1 (stereo partly drawn) [Example 46, 3-(4-(Cyclobutylsulfonyl)phenyl)-5-(7-methyl-7-((R)-2-methylpyrrolidin-1-yl)-6,7,8,9-tetrahydro-5H-benzo[7]annulen-2-yl)-1H-pyrazolo[3,4-b]pyridine]
Human MER
  IC50: 100 to 1000 nM
Human TYRO3
  IC50: 100 to 1000 nM

## Cc1cc(-c2n[nH]c3ncc(-c4ccc5c(c4)CCC(N4CCCC4)CC5)cc23)ccc1C(=O)N1CCNCC1 (stereo not shown) [Example 47, 1-(2-Methyl-4-{5-[7-(pyrrolidin-1-yl)-6,7,8,9-tetrahydro-5H-benzo[7]annulen-2-yl]-1H-pyrazolo[3,4-b]pyridin-3-yl}benzoyl)piperazine]
Human MER
  IC50: 100 to 1000 nM
Human TYRO3
  IC50: < 100 nM

## Cc1cc(-c2n[nH]c3ncc(-c4ccc5c(c4)CCN(C(=O)C(C)C)CC5)cc23)ccc1C(=O)N1CCNCC1 [Example 48, 2-Methyl-1-(7-{3-[3-methyl-4-(piperazine-1-carbonyl)phenyl]-1H-pyrazolo[3,4-b]pyridin-5-yl}-2,3,4,5-tetrahydro-1H-3-benzazepin-3-yl)propan-1-one]
Human MER
  IC50: > 1000 nM
Human TYRO3
  IC50: 100 to 1000 nM

## Cc1cc(-c2n[nH]c3ncc(-c4ccc5c(c4)CC[C@@H](N4CCCC4)CC5)cc23)cc(C)c1C(N)=O [Example 49, 2,6-Dimethyl-4-{5-[(7S)-7-(pyrrolidin-1-yl)-6,7,8,9-tetrahydro-5H-benzo[7]annulen-2-yl]-1H-pyrazolo[3,4-b]pyridin-3-yl}benzamide]
Human MER
  IC50: 100 to 1000 nM
Human TYRO3
  IC50: < 100 nM

## Cc1cc(-c2n[nH]c3ncc(-c4ccc5c(c4)CC[C@@H](N4CCCC4)CC5)cc23)cc(Cl)c1C(N)=O [Example 50, 2-Chloro-6-methyl-4-{5-[(7S)-7-(pyrrolidin-1-yl)-6,7,8,9-tetrahydro-5H-benzo[7]annulen-2-yl]-1H-pyrazolo[3,4-b]pyridin-3-yl}benzamide]
Human MER
  IC50: < 100 nM
Human TYRO3
  IC50: < 100 nM

## C[C@@H]1CCCN1C1(C)CCc2ccc(-c3cnc4[nH]nc(-c5ccc(C(N)=O)c(F)c5)c4c3)cc2CC1 (stereo partly drawn) [Example 52, 2-Fluoro-4-(5-(7-methyl-7-((R)-2-methylpyrrolidin-1-yl)-6,7,8,9-tetrahydro-5H-benzo[7]annulen-2-yl)-1H-pyrazolo[3,4-b]pyridin-3-yl)benzamide]
Human MER
  IC50: 100 to 1000 nM
Human TYRO3
  IC50: < 100 nM

## COc1cc(-c2n[nH]c3ncc(-c4ccc5c(c4)CCC(C)(N4CCC[C@H]4C)CC5)cc23)ccc1C(N)=O (stereo partly drawn) [Example 53, 2-Methoxy-4-(5-(7-methyl-7-((R)-2-methylpyrrolidin-1-yl)-6,7,8,9-tetrahydro-5H-benzo[7]annulen-2-yl)-1H-pyrazolo[3,4-b]pyridin-3-yl)benzamide]
Human MER
  IC50: 100 to 1000 nM
Human TYRO3
  IC50: < 100 nM

## C[C@@H]1CCCN1C1(C)CCc2ccc(-c3cnc4[nH]nc(-c5ccc(C(N)=O)cc5)c4c3)cc2CC1 (stereo partly drawn) [Example 54, 4-(5-(7-Methyl-7-((R)-2-methylpyrrolidin-1-yl)-6,7,8,9-tetrahydro-5H-benzo[7]annulen-2-yl)-1H-pyrazolo[3,4-b]pyridin-3-yl)benzamide]
Human MER
  IC50: < 100 nM
Human TYRO3
  IC50: < 100 nM

## Cc1cc(-c2n[nH]c3ncc(-c4ccc5c(c4)CC[C@@H](N4CCCC4)CC5)cc23)cc(C)c1C(=O)N1CCNCC1 [Example 55, 1-(2,6-Dimethyl-4-{5-[(7S)-7-(pyrrolidin-1-yl)-6,7,8,9-tetrahydro-5H-benzo[7]annulen-2-yl]-1H-pyrazolo[3,4-b]pyridin-3-yl}benzoyl)piperazine]
Human MER
  IC50: 100 to 1000 nM
Human TYRO3
  IC50: < 100 nM

## Cc1cc(-c2n[nH]c3ncc(-c4ccc5c(c4)CC[C@@H](N4CCCC4)CC5)cc23)cc(Cl)c1C(=O)N1CCNCC1 [Example 56, 1-(2-Chloro-6-methyl-4-{5-[(7S)-7-(pyrrolidin-1-yl)-6,7,8,9-tetrahydro-5H-benzo[7]annulen-2-yl]-1H-pyrazolo[3,4-b]pyridin-3-yl}benzoyl)piperazine]
Human MER
  IC50: < 100 nM
Human TYRO3
  IC50: < 100 nM

## C[C@@H]1CCCN1C1(C)CCc2ccc(-c3cnc4[nH]nc(-c5ccc(C(C)(C)O)c(Cl)c5)c4c3)cc2CC1 (stereo partly drawn) [Example 57, 2-[2-Chloro-4-(5-{7-methyl-7-[(2R)-2-methylpyrrolidin-1-yl]-6,7,8,9-tetrahydro-5H-benzo[7]annulen-2-yl}-1H-pyrazolo[3,4-b]pyridin-3-yl)phenyl]propan-2-ol]
Human MER
  IC50: 100 to 1000 nM
Human TYRO3
  IC50: 100 to 1000 nM

## C[C@H]1CCCN1C1(C)CCc2ccc(-c3cnc4[nH]nc(-c5ccc(C(C)(C)O)c(Cl)c5)c4c3)cc2CC1 (stereo partly drawn) [Example 58, 2-[2-Chloro-4-(5-{7-methyl-7-[(2S)-2-methylpyrrolidin-1-yl]-6,7,8,9-tetrahydro-5H-benzo[7]annulen-2-yl}-1H-pyrazolo[3,4-b]pyridin-3-yl)phenyl]propan-2-ol]
Human MER
  IC50: 100 to 1000 nM
Human TYRO3
  IC50: 100 to 1000 nM
